Assays:
Arabidopsis Col-0 [1] = experiment: Crystalline cellulose content measurement of cell wall; format: in vivo, Arabidopsis thaliana
Method: Arabidopsis Col-0 seeds were sown on growth medium supplemented with 0.1% DMSO, 1 μM ES20, or different concentrations of ES20 analogs. […] Cellulose extraction and measurement were performed as previously described (Huang et al., 2020).

[2] = test system: AtCESA6 carrying missense mutations in prc1-1; experiment: Root growth of transgenic plants expressing mutated AtCESA6 in prc1-1; format: in vivo, Arabidopsis thaliana; conditions: D562N, D564N, D785N, Q823E, R826A, W827A in prc1-1
From the text: We then examined whether transgenic plants expressing AtCESA6 with predicted missense mutations at the catalytic site in prc1-1 background would have altered sensitivity to active ES20 analogs. […] However, the responses of two transgenic lines expressing AtCESA6 carrying missense mutations outside of the catalytic site (L365F and D395N) to nine active ES20 analogs were similar to those of wild-type plants (FIG. 2B).
To test the inhibitory effects of different chemicals on plant growth, wild-type Arabidopsis Col-0 plants were used. The seeds of plants used for growth assays or live cell imaging were sequentially sterilized with 50% bleach and 75% ethanol. […] To quantify the inhibitory effects of different ES20 active analogs on the root growth of Arabidopsis wildtype, EMS mutants, and transgenic plants expressing mutated AtCESA6 in prc1-1 background, sterilized Col-0, mutants, and transgenic plants seeds were sown on gridded Petri plates containing ½-strength MS medium supplemented with different concentrations of ES20 analogs. […] The plates were scanned using an Epson Perfection V550 scanner after 7 days of growth, and the root lengths of plants were quantified using ImageJ software. […] The Petri dishes were scanned, and hypocotyl length was measured using ImageJ. […]

Arabidopsis Col-0 [3] = experiment: Etiolated hypocotyl growth assay; format: in vivo, Arabidopsis thaliana; conditions: dark-grown Col-0, dosages examined
Method: To test the inhibitory effects of different chemicals on plant growth, wild-type Arabidopsis Col-0 plants were used. The seeds of plants used for growth assays or live cell imaging were sequentially sterilized with 50% bleach and 75% ethanol. After washing with sterilized water, the seeds were sown on ½-strength Murashige and Skoog (MS) medium supplemented with 3 mg/L of various chemicals. The plants were grown under continuous light of 130 μmol m^−2 s^−1 intensity illuminated by a Philips F25T8/TL841 25-watt bulb at 22° C. To quantify the inhibitory effects of different ES20 active analogs on the root growth of Arabidopsis wildtype, EMS mutants, and transgenic plants expressing mutated AtCESA6 in prc1-1 background, sterilized Col-0, mutants, and transgenic plants seeds were sown on gridded Petri plates containing ½-strength MS medium supplemented with different concentrations of ES20 analogs. The plates were placed in vertical orientation in the growth chamber for root measurement. The plates were scanned using an Epson Perfection V550 scanner after 7 days of growth, and the root lengths of plants were quantified using ImageJ software. […] The Petri dishes were scanned, and hypocotyl length was measured using ImageJ. Transgenic plants expressing fluorescence-tagged PIN2, PIP2a, HDEL, VHA-a1, and GOT1p were as reported previously (Xu and Scheres, Plant Cell, 2005, 17, 525-536).

[4] = target: T1, GFP-CESA6c (central cytosolic domain of AtCESA6) (Arabidopsis thaliana, UniProt Q94JQ6); experiment: MST assay with GFP-CESA6c; format: binding
T1 construct: made in house; host or cells: E. coli
From the text: (§1) To obtain the central cytosolic domain of AtCESA6 for the MST assay, we inserted the GFP coding sequence into the SacI and PstI restriction enzyme sites of the pRSF-Duet-1 vector (Huang et al., 2020). The GFP coding sequence was amplified from the pUBN-GFP-DEST vector. The sequence encoding the central cytosolic domain of CESA6 (CESA6c) was amplified from Col-0 cDNA and fused with GFP at the C-terminus. CESA6c construct was used as a template for creating CESA6c^P595S construct by site-directed mutagenesis. Protein purification was performed as previously described (Huang et al., 2020).
(§2) MST assays were carried out using a Monolith NT.115 (NanoTemper) machine at the Chemical Genomics Facility at Purdue University. […] The ES20-1 was dissolved in DMSO, and the final concentration of DMSO was 5% (vol/vol). MST standard capillaries were used to load the samples into the MST instrument. Triplicate reactions were performed for each test. The MST data were processed using MO. Affinity Analysis Version 2.3 software.

GFP-CESA6c^P595S = target: T2, GFP-CESA6c^P595S (Arabidopsis thaliana, UniProt Q94JQ6, P595S); experiment: MST assay with GFP-CESA6c^P595S; format: binding
T2 construct: We purified AtCESA6 central cytoplasmic domain carrying missense mutation P595S (CESA6c^P595S); made in house; host or cells: E. coli (inferred from the wild-type CESA6c construct that served as template)
From the text: as §1, §2

## Cc1ccccc1C(=O)NNC(=S)NC(=O)c1ccccc1 [ES20-1]
Arabidopsis Col-0 [1]; 1 μM, 7-day-old dark-grown seedlings, mean±SD, n=3
  crystalline cellulose content in hypocotyl cell wall: 90 ± 6 µg/mg
Arabidopsis Col-0 [1]; 1 μM, 7-day-old dark-grown seedlings, vs DMSO
  reduction of crystalline cellulose levels in the hypocotyl: ~45%
Arabidopsis Col-0 [1]; 7-day-old light-grown seedlings, different concentrations
  root cell wall crystalline cellulose content: very potent in inhibiting cellulose biosynthesis in roots
[2]
  sensitivity of transgenic lines with AtCESA6 catalytic site mutations: Reduced sensitivity
Arabidopsis Col-0 [3]
  hypocotyl growth inhibition compared with ES20: inhibited hypocotyl growth more strongly than ES20
[4]; 100 nM GFP-CESA6c
  interaction with CESA6c: interacted
[4]; MST
  relative binding affinity to CESA6c: may have a higher binding affinity to CESA6c than ES20
GFP-CESA6c^P595S
  interaction with CESA6c^P595S: interacts
